Usually Ki stands for the equilibrium dissociation constant of an inhibitor or competing ligand from its target.

The target in data set [1] is T1, horse serum cholinesterase (Equus caballus, UniProt P81908).
T1 construct: purchased Sigma Chemicals Co; host or cells: horse serum
Put plainly: Inhibition of horse (serum) cholinesterase, Ki by the method of Dixon. It counts as biochemical. The source says: E. coli beta-galactosidase, chromatographically purified, was obtained from Worthington Biochemicals. P-aminophenyl-beta-D-thiogalactopyranoside (APGP) was purchased from Calbiochem. O-nitrophenyl-beta-D-galactopyranoside (ONPG), bovine trypsin (twice recrystallized), DL-benzoylarginine-p-nitroanilide (DL-BAPNA), p-aminobenzamidine (PAB), cholinesterase (affinity purified from horse serum), procainamide, dithiobisnitrobenzoate, and butyrylthiocholine were obtained from Sigma Chemicals Co. Tresyl chloride (2,2,2-trifluoroethanesulfonyl chloride) was obtained from Fluka and ethyl-(dimethyl-aminopropyl)carbodiimide (EDC) from Aldrich. The surfactant Sandopan JA36 was obtained from Sandoz Chemicals and the surfactant octaethylene glycol n-hexadecyl ether (C16 E8) was obtained from Nikkol Chemicals Co. (Japan). The structures of these surfactants is as shown below: [drawing 1]
The molar extinction coefficient of C16 E8 -pyridinium at 259 nm is […] (by dry weight). The product final yield is 71.9%.

For data set [2] the following is noted: reported pI; cited from earlier work.
Data set [3] in a line: Stability of trypsin solution at 4 degrees Celsius (BAPNA activity assay). It counts as physicochemical. The note with it: 2.9 mg/ml in Buffer A, over three days. Here is the method: This example was conducted in accordance with Example 18 above. The activity of trypsin solutions were determined by a method similar to that described by Erlanger et al., Arch. Biochem. Biophys. 95, 271 (1961), using BAPNA as substrate. An aliquot (0.5 milliliter) of the trypsin solution to be assayed was diluted in 1.5 milliliters of 0.05 M Tris-HCl buffer, pH 8.15, containing 0.02 M CaCl2 in a 3.5 milliliter disposable polystyrene cuvette. A 100 microliter aliquot of a 10^-2 M solution of BAPNA in dimethylsulfoxide was then added to this solution. The rate of change in absorbance at 388 nm at 25 degrees Celsius was then measured in a Schimadzu UV 160 spectrophotometer. One unit of activity was defined as the amount of enzyme causing an absorbance change of 0.1 per minute under these conditions.
A solution of trypsin (2.9 milligrams of protein per milliliter) was prepared in Buffer A and several activity assays were made over the course of three days to determine its stability at 4 degrees Celsius. […] In this case the eluted peaks were collected and assayed for enzymatic activity.

T1 sequence (P81908 whole entry): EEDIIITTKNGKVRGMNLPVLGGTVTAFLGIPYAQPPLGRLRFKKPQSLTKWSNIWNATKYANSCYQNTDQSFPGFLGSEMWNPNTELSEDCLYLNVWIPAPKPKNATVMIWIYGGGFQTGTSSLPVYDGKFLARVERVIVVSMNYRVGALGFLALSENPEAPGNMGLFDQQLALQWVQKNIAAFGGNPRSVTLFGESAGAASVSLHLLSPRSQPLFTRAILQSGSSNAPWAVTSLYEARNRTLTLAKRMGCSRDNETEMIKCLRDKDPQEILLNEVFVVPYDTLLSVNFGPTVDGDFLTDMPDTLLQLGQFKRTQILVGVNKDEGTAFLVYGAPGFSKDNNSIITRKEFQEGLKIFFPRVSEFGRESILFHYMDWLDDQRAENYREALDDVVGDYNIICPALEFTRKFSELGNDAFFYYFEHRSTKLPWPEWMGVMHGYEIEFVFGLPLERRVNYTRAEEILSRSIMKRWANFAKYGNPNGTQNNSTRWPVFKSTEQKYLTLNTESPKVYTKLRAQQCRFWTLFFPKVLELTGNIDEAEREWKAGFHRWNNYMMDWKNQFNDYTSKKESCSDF

Turning to `CCCCCCCCCCCCCCCCOCCOCCOCCOCCOCCOCCOCCOCC[n+]1ccccc1` [C16 E8 -pyridinium, N-(n-hexadecyloctaethoxy)pyridinium], the Ki in data set [1] (horse serum cholinesterase, method of Dixon, read-out: Ki toward horse serum cholinesterase) is 514 nM. Also, in data set [1] (surface active HPLC peak, retention time 127.5 minutes), the “inhibition of the enzymatic activity of horse cholinesterase” value is given as “significantly inhibits”. For the molecule `CCCCCCCCCCCCCCCCOCCOCCOCCOCCOCCOCCOCCOCCO` [Unmodified surfactant, octaethylene glycol n-hexadecyl ether, reference compound], the “effect on the activity of horse cholinesterase” value in data set [1] (even at concentrations as high as 10^-3 M) is listed as “does not have any effect”.

Turning to “Lysozyme: test protein, isoelectric point (pI) of 11.0”, in data set [2], the “isoelectric point (pI)” value is on record as 11.0.

B1: trypsin: bovine trypsin (twice recrystallized) (protein, UniProt P00760 24-246, looked up)
Serine protease 1: IVGGYTCGANTVPYQVSLNSGYHFCGGSLINSQWVVSAAHCYKSGIQVRLGEDNINVVEGNEQFISASKSIVHPSYNSNTLNNDIMLIKLKSAASLNSRVASISLPTSCASAGTQCLISGWGNTKSSGTSYPDVLKCLKAPILSDSSCKSAYPGQITSNMFCAGYLEGGKDSCQGDSGGPVVCSGKLQGIVSWGSGCAQKNKPGVYTKVCNYVSWIKQTIASN
Regarding B1, the “loss in tryptic activity (stability of solution)” value in data set [3] is “No significant loss in tryptic activity was observed”.

These data come from patent US5045190A, “Chromatography apparatus” (priority 1990, dated 1991).
